In data set [1] the test system is HCT-15 (human carcinoma of the colon). As to the kind of experiment: Cytotoxity of acetylgliotoxin by the MTT method. To be noted: HCT-15, 72 hours. Format: cell-based. The procedure: (§1) Antitumor activity of acetylgliotoxin against various cancer cells was measured by the MTT method. Various cancer cells were adjusted to 4.0 × 10^4 cells/mL by using a medium (hereinafter referred to as medium A) composed of RPMI 1640 medium (GIBCO) containing 10% fetal calf serum, and each 0.1 mL of the cancer cells was pipetted into each well of a 96 well microtiter plate. The plate was incubated in a carbon dioxide gas incubator at 37 °C for 20 hours, and each 0.025 mL of samples (test compounds) suitably diluted with the medium A was added. Then, incubation was further carried out in the carbon dioxide gas incubator at 37 °C for 72 hours. Each 0.01 mL of the MTT solution adjusted to 5 mg/mL by using Dulbecco's PBS (-) (Nissui) was added thereto, and incubated in the carbon dioxide gas incubator at 37 °C for 3 hours. Subsequently, each 0.05 mL of 0.01 N HCl/20 % SDS was added. Produced crystals were dissolved, and absorbance at 570 nm was measured by a microplate reader. By comparing the absorbance of the cells treated with the sample in the known concentration with that of non-treated cells, the sample concentration which inhibits multiplication of the cells at the rate of 50% (IC50) was calculated. Apoptosis was determined by incubating the plate in the carbon dioxide gas incubator at 37 °C for 20 hours, adding each 0.025 mL of samples (test compounds) suitably diluted with the medium A, incubating in the carbon dioxide gas incubator at 37 °C for 72 hours, according to the above method, adding nucleus-staining fluorescent dye DAPI (4,6 - diaminodino-2-henylindole) to each well so as to become 0.5 ng/mL, and after leaving at room temperature for 10 minutes, confirming agglomeration of chromosomes by using a fluorescence microscope.
(§2) Human leukemia cells (K 562 : Dainippon Seiyaku), human carcinoma cells of the colon (HCT-15, HCT-116, SW946: Dainippon Seiyaku), human leukemia cells (U 937: Dainippon Seiyaku), human lung cancer cells (LX-1: Biseibutsu Kagaku Kenkyu-sho), mouse leukemia cells (P 388 : Dainippon Seiyaku), mouse carcinoma cells of the colon (colon-26 : Gan Kenkyu-kai, Gan Kenkyu-sho) Table 1

A further data set relates to P388 (mouse leukemia ). Nature of the data set: Cytotoxity of acetylgliotoxin by the MTT method. Format: cell-based. To be noted: P388, 72 hours. As for the experimental part: as §1, §2
The test system of data set [2] is LX-1 (human lung cancer ). As to the kind of experiment: Cytotoxity of acetylgliotoxin by the MTT method. It counts as cell-based. To be noted: LX-1, 72 hours. The procedure: as §1, §2
Data set [3] relates to colon-26 (mouse carcinoma of the colon ). As to the kind of experiment: Cytotoxity of acetylgliotoxin by the MTT method. It counts as cell-based. To be noted: colon-26, 72 hours. As for the experimental part: as §1, §2
In general terms: Tetrazolium dyes change colour on reduction, which living cells bring about.

Another data set concerns U937 (human leukemia ). Nature of the data set: Cytotoxity of acetylgliotoxin by the MTT method. It counts as cell-based. To be noted: U-937, U937, 72 hours. The procedure:
as §1, §2

Data set [4] deals with SW948 (human carcinoma of the colon). Nature of the data set: Cytotoxity of acetylgliotoxin by the MTT method. It counts as cell-based. To be noted: SW948, 72 hours. As for the experimental part:
as §1, §2

The subject of data set [5] is HCT-116 (human carcinoma of the colon). As to the kind of experiment: Cytotoxity of acetylgliotoxin by the MTT method. Format: cell-based. To be noted: HCT-116, 72 hours. As for the experimental part:
as §1, §2

Data set [6] in a line: Solubility of the isolated active component. It counts as physicochemical. As for the experimental part:
After cultivation by the above method was finished, an equal amount (3 L) of acetone was added to the 3 L culture solution, and extraction was carried out at room temperature for 30 minutes. Acetone was removed from the acetone-containing cultuer solution by an evaporator, and solvent extraction with ethyl acetate was carried out by a separating funnel. The solvent extract was dehydrated by sodium sulfate, and then, evaporated by an evaporator to dryness under reduced poressure to obtain 470 mg of the extract. Subsequently, the extract was adsorbed on a silica gel column, washed with toluene, and active fractions were eluted by toluene/ethyl acetate (8:2). The eluate was concentrated by an evaporator under reduced pressure to obtain 42 mg. The crude matters were subjected to high speed liquid chromatography ("Capsel-Pak C18", Shiseido, solvent: water:acetonitrile = 72:28), and a pure active substance was obtained by isochromatic elution. […] Ultraviolet absorption spectra end 266 nm (water: acetonitrile = 60 : 40) Molecular weight: 368 Thin layer chromatography: Absorbent; HPTLC Kieselgel 60 F 254 (MERK) Developing solvent: hexane : ethyl acetate = 6 : 4 R f value; 0.233 High speed liquid chromatogaphy: Used apparatus; UV detector : Waters 996 (Waters) Pump: HITACHI L―6200 (Hitachi Ltd.) Column: Reversed phase high speed liquid chromatography column for analysis (CAPCELL PAK C18 UG120 5 µ m 4.6 mm ⌀ × 250 mm (Shiseido) Solvent for elution; 30-100 % acetonitrile (linear grudient 20 minutes) Flow rate; 0.8 mL/min Retention time; about 10.5 minutes • Chemical shift values (cf. Fig. 1) in ^1H nuclear magnetic resonance spectra • ^1H―NMR (CDCl3) δ :5.97―6.04 (3H, m), 5.57 (1H, d), 5.02 (1H, d), 4.31 (1H, dd), 4.19 (1H, dd), 3.74 (1H, d), 3.44 (1H, dd), 3.17 (3H, s), 2.96 (1H, d), 2.14 (3H, s) • FAB MASS : 369 (MH^+) • Chemical shift values (cf. Fig. 2) in ^13C nuclear magnetic resonance spectra (600 MH3, CDCL3)

Data set [7] relates to human carcinoma of the colon HCT-116. Nature of the data set: Evaluation in vivo using human carcinoma of the colon HCT-116 (Example 1). Further details: species or system Balb/c nu/nu mice. To be noted: for I. R. (%): day 21, Balb/c nu/nu mice. As for the experimental part: Balb/c nu/nu mice (female: 5 weeks old) were bought, and HCT- 116 subcultured in vivo in the subcutaneous tissue was taken out. The HCT-116 was minced in a Petridish, and transplanted into the sulcutaneous tissue of […] mice in an amount of 30 mg/mouse by a trucker. The transplanted day was assigned day 0, and the size of the tumor and body weight were measured on day 7 and divided into groups by n=2.
Acetylgliotoxin was dissolved in dimethyl sulfoxide (DMSO) in a concentration of 100 mg/mL, and adjusted to an object concentration (0.5 mg/kg, 1 mg/kg, 10 mg/kg, 20 mg/kg) by 5 % Tween 80 (saline solution). In the evaluation of 0.5, 1 mg/kg, injection was carried out every day for 5 days, in the case of 10 mg/kg, injected twice on day 7 and day8, and in the case of 20 mg/kg, injected once on day 7.
The anticancer effect was evaluated by the inhibition rate of tumor cell multiplication (IR calculated from the weight of tumor. IR was obtained by the following formula.

Converted amounts (≈) assume the structure as drawn.

In general, IC50 refers to the point on the concentration scale where inhibition reaches its midpoint. With `CC(=O)OC1C=CC=C2CC34SSC(CO)(C(=O)N3C21)N(C)C4=O` (stereo not drawn) [acetylgliotoxin], the IC50 in data set [1] stood at 0.039 µg/mL (≈ 0.106 µM); in the data set on P388 (mouse leukemia ) it was 0.0058 µg/mL (≈ 0.0157 µM); in data set [2], 0.074 µg/mL (≈ 0.201 µM); in data set [3] it was 0.076 µg/mL (≈ 0.206 µM); in the data set with U937 (human leukemia ), 0.014 µg/mL (≈ 0.038 µM); in data set [4], 0.19 µg/mL (≈ 0.516 µM). Further, the IC50 in data set [5] came out at 0.18 µg/mL (≈ 0.489 µM). Further, the Solubility result in [6] (in chloroform and dimethyl sulfoxide) was “Easily soluble”; in [6] (in ethyl acetate, acetonitrile, toluene, methanol and acetone), “soluble”; in [6] (in water), “slightly soluble”. Besides, the “I. R. (%)” value in data set [7] (0.5 mg/kg×5 i.p.(d7-11)) amounted to 41%; in [7] (1 mg/kg×5 i.p.(d7-11)), 65%; in data set [7] (10 mg/kg×2 i.p.(d7, 8)), 65%; in data set [7] (20 mg/kg×1 i.p. (d7)), 28%. Moreover, the “duration of anticancer effects” value in data set [7] (Test Example (B), 1 mg/kg × 5 and 10 mg/kg × 2) is listed as “continued up to day 42”.

The record behind these values is patent EP0926242A1, “GLIOTOXIN DERIVATIVES AND ANTICANCER AGENT COMPRISING THE SAME” (priority 1996, dated 1998).
